Results published in ChEMBL document CHEMBL4831562, “Discovery of Imidazole-Based Inhibitors of Plasmodium falciparum cGMP-Dependent Protein Kinase” (ACS Med Chem Lett, 2021).
≈ marks a conversion by molar mass, not a printed value.

Tests used:
[1] = Metabolic stability in mouse liver microsomes assessed as half life incubated for 60 mins in the presence of NADPH by LC-MS/MS analysis; assay type: ADME, Microsome
Plasmodium cynomolgi [2] = test: Antiplasmodial activity against liver stage Plasmodium cynomolgi B infected in non-human primate hepatocytes assessed as reduction in liver schizonts development incubated for 4 days starting on day 4 post-sporozoite inoculation by […] cure mode analysis; assay type: functional, organism-based; settings: Hepatocyte, 96 h
Plasmodium cynomolgi [3] = test: Antiplasmodial activity against liver stage Plasmodium cynomolgi B infected in non-human primate hepatocytes assessed as inhibition of hypnozoite development incubated for 4 days from sporozoite addition by prophylactic assay; assay type: functional, organism-based; settings: Hepatocyte, 96 h
Homo sapiens = species: Homo sapiens; test: Inhibition of human PKG using FAM-labeled PKAtide or IP3R-derived peptide as a substrate at 10 uM preincubated for 15 mins followed by substrate addition and incubated for 60 mins by IMAP assay relative to control; settings: time 75.0 min
[4] = Inhibition of Plasmodium falciparum PKG using FAM-labeled PKAtide or IP3R-derived peptide as a substrate preincubated for 15 mins followed by substrate addition and incubated for 60 mins by IMAP assay
Plasmodium cynomolgi [5] = test: Antiplasmodial activity against liver stage Plasmodium cynomolgi B infected in non-human primate hepatocytes assessed as reduction in liver hypnozoites development incubated for 4 days starting on day 4 post-sporozoite inoculation by […] cure mode analysis; assay type: functional, organism-based; settings: Hepatocyte, 96 h
[6] = Toxicity against non-human primate hepatocytes infected with liver stage Plasmodium cynomolgi B incubated for 4 days from sporozoite addition; assay type: ADME, tissue-based, Hepatocyte; settings: primates, 96 h, time 4 day
[7] = Toxicity against non-human primate hepatocytes infected with liver stage Plasmodium cynomolgi B incubated for 4 days starting on day 4 post-sporozoite inoculation; assay type: ADME, tissue-based, Hepatocyte; settings: primates, 96 h, time 4 day
Plasmodium berghei [8] = test: (§1) Antiplasmodial activity against luciferase expressing Plasmodium berghei sporozoites infected in HepG2 cells assessed as decrease in parasite infection at 2 uM incubated for 16 hrs followed by replacement with compound free medium and measured after 48 hrs post infection by IVIS spectrum in vivo imaging analysis relative to control; assay type: functional; settings: read-out: INH
Plasmodium berghei [9] = test: as §1, with “at 10” for “at 2”, “medium” for “medium and”; assay type: functional; settings: read-out: INH
[10] = Metabolic stability in human liver microsomes assessed as half life incubated for 60 mins in the presence of NADPH by LC-MS/MS analysis; assay type: ADME, Microsome
[11] = system: cGMP-dependent protein kinase (Plasmodium falciparum), W7JX98 [T618Q]; test: Inhibition of Plasmodium falciparum PKG T618Q mutant using FAM-labeled PKAtide or IP3R-derived peptide as a substrate at 10 uM preincubated for 15 mins followed by substrate addition and incubated for 60 mins by IMAP assay relative to control; settings: time 75.0 min
Sequence of cGMP-dependent protein kinase (Plasmodium falciparum), W7JX98 [T618Q] (W7JX98 whole entry T618Q): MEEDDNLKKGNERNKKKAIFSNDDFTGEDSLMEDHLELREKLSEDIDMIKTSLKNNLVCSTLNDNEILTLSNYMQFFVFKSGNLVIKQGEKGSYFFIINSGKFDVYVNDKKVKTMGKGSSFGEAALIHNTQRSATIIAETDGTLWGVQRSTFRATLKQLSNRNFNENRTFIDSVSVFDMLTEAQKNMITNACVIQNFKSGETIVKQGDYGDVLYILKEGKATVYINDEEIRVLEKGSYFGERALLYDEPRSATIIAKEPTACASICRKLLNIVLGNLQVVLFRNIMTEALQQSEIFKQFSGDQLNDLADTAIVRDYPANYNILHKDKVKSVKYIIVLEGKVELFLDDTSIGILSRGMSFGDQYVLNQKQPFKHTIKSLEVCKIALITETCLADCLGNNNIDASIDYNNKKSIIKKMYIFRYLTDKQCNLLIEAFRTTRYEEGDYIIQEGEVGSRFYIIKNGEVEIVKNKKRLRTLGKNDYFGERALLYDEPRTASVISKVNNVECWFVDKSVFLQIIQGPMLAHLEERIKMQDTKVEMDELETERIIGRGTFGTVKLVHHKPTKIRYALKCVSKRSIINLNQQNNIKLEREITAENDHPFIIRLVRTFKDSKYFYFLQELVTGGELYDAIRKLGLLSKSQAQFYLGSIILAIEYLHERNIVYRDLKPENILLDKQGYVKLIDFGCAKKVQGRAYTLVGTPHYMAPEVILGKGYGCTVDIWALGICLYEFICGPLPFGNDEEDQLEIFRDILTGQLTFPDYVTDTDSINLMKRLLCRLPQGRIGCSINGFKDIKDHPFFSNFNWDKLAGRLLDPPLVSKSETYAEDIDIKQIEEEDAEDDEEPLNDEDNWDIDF

[12] = Kinetic aqueous solubility of the compound at pH 7.4 measured after 1 hr by UV/LC-MS/MS analysis; assay type: physicochemical; settings: buffer, read-out: Kinetic_solubility
Plasmodium cynomolgi [13] = test: Antiplasmodial activity against liver stage Plasmodium cynomolgi B infected in non-human primate hepatocytes assessed as inhibition of liver schizonts development incubated for 4 days from sporozoite addition by prophylactic assay; assay type: functional, organism-based; settings: Hepatocyte, 96 h
[14] = Inhibition of Plasmodium falciparum PKG
Plasmodium falciparum [15] = test: Inhibition of Plasmodium falciparum PKG using FAM-labeled PKAtide or IP3R-derived peptide as a substrate at 1 uM preincubated for 15 mins followed by substrate addition and incubated for 60 mins by IMAP assay relative to control; settings: time 75.0 min
Cytochrome P450 3A4 = Cytochrome P450 3A4 (Homo sapiens, UniProt P08684); test: Inhibition of human CYP3A4 using testosterone as a substrate by LC/MS/MS analysis; assay type: ADME
Sequence of Cytochrome P450 3A4 (P08684 whole entry): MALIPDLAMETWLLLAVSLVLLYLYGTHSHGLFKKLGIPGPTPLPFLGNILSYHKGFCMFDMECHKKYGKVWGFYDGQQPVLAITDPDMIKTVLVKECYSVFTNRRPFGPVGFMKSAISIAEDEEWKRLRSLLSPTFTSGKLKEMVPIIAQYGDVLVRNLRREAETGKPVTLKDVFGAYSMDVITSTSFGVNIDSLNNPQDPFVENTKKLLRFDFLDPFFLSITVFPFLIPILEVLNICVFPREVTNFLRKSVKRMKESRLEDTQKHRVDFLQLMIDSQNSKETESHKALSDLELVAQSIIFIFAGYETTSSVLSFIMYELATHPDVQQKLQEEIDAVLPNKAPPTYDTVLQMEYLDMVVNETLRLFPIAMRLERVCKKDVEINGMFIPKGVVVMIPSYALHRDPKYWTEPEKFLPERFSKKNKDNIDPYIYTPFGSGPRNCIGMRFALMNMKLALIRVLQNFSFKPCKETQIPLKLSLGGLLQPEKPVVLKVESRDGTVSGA

Cytochrome P450 2D6 = Cytochrome P450 2D6 (Homo sapiens, UniProt P10635); test: Inhibition of human CYP2D6 using 3-[2-(N,N-diethylamino)ethyl]-7-methoxy-4-methyl coumarin as a substrate incubated for 45 mins by fluorescence based analysis; assay type: ADME
Sequence of Cytochrome P450 2D6 (P10635 whole entry): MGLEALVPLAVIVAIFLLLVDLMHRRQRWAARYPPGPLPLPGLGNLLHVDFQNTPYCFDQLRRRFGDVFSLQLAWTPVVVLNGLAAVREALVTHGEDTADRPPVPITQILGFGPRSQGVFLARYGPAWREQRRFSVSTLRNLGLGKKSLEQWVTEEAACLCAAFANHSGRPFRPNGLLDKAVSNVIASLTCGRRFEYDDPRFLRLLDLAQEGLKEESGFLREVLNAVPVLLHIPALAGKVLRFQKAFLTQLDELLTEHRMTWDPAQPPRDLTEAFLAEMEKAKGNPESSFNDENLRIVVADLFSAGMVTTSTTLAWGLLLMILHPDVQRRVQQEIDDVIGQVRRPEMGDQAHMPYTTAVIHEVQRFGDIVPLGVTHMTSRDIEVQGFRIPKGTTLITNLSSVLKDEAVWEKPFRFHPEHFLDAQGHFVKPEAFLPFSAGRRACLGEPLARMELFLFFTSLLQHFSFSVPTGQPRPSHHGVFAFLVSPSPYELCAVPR

Plasmodium falciparum [16] = test: Antiplasmodial activity against asexual blood stage Plasmodium falciparum 3D7; assay type: functional, organism-based
Cytochrome P450 2C9 = Cytochrome P450 2C9 (Homo sapiens, UniProt P11712); test: Inhibition of human CYP2C9 using 7-methoxy-4(trifluoromethyl coumarin) as a substrate incubated for 15 mins by fluorescence based analysis; assay type: ADME
Sequence of Cytochrome P450 2C9 (P11712 whole entry): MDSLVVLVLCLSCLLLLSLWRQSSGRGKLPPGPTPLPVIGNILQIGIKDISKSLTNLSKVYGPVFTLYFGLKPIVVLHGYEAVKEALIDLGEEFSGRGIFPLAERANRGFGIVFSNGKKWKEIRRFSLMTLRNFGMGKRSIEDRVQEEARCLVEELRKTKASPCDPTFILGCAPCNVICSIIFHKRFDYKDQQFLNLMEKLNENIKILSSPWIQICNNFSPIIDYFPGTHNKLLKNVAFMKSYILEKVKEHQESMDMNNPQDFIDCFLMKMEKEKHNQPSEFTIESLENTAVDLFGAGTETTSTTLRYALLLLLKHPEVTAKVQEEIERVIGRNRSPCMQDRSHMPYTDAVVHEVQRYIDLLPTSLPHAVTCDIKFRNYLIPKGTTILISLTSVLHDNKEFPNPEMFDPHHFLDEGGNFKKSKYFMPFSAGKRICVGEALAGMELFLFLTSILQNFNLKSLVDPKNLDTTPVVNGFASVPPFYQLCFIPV

Plasmodium berghei [17] = test: as §1, with “berghei hepatic stage” for “berghei”, “infection” for “infection at 2 uM”, “medium” for “medium and”, “analysis” for “analysis relative to control”; assay type: functional, organism-based

Compound: Cc1cn(-c2ccnc(N[C@@H]3CCN(C(=O)c4nccs4)C3)n2)c(-c2ccccc2)n1
- half-life [1]: < 2 min
- IC50 (Plasmodium cynomolgi [2]): 11600 nM
- IC50 (Plasmodium cynomolgi [3]): > 20000 nM
- inhibition (Homo sapiens): 3%
- IC50 [4]: 320 nM
- IC50 (Plasmodium cynomolgi [5]): > 20000 nM
- Activity [6]: > 20 µM
- Activity [7]: > 20 µM
- percent decrease in parasite infection in HepG2 cells at 2 µM (Plasmodium berghei [8]): 78%
- percent inhibition of parasite infection at 10 µM (Plasmodium berghei [9]): 89%
- half-life [10]: < 2 min
- inhibition [11]: 3%
- solubility kinetic at 1 h [12]: 200 µM (≈ 86.3 µg/mL)
- IC50 (Plasmodium cynomolgi [13]): 7910 nM

Compound: CCN(CC)Cc1onc(-c2cccc(Cl)c2)c1-c1ccnc(N[C@@H]2CCN(C(=O)c3ccon3)C2)n1
- percent decrease in parasite infection in HepG2 cells at 2 µM (Plasmodium berghei [8]): 52%
- IC50 [14]: 13 nM

Compound: Cc1cn(-c2ccnc(NC3CCCN(C(=O)c4nccs4)C3)n2)c(-c2ccccc2)n1 (stereo not drawn)
- inhibition (Plasmodium falciparum [15]): 4%

Compound: Cc1cn(-c2ccnc(N[C@H]3CCN(C(=O)c4nccs4)C3)n2)c(-c2ccccc2)n1
- inhibition (Plasmodium falciparum [15]): 4%

Compound: Cc1cn(-c2ccnc(NCC3CCCN3C(=O)c3nccs3)n2)c(-c2ccccc2)n1 (stereo not drawn)
- inhibition (Plasmodium falciparum [15]): 3%

Compound: Cc1cn(-c2ccnc(NCC3(NC(=O)c4nccs4)CC3)n2)c(-c2ccccc2)n1
- inhibition (Plasmodium falciparum [15]): 6%

Compound: Cc1cn(-c2ccnc(N[C@@H]3CCN(C(=O)c4nccs4)C3)n2)c(-c2ccc(Cl)cc2)n1
- IC50 [4]: 1160 nM

Compound: O=C(c1nccs1)N1CC[C@@H](Nc2nccc(-n3cc(C4CC4)nc3-c3cccc(Cl)c3)n2)C1
- half-life [1]: < 2 min
- IC50 (Plasmodium cynomolgi [2]): 4620 nM
- IC50 (Cytochrome P450 3A4): 190 nM
- IC50 (Plasmodium cynomolgi [3]): 9880 nM
- IC50 (Cytochrome P450 2D6): > 10000 nM
- IC50 [4]: 60 nM
- IC50 (Plasmodium cynomolgi [5]): > 20000 nM
- Activity [6]: > 20 µM
- Activity [7]: > 20 µM
- percent decrease in parasite infection in HepG2 cells at 2 µM (Plasmodium berghei [8]): 94%
- percent inhibition of parasite infection at 10 µM (Plasmodium berghei [9]): 93%
- half-life [10]: 3.7 min
- EC50 (Plasmodium falciparum [16]): 3300 nM
- solubility kinetic at 1 h [12]: 28 µM (≈ 13.8 µg/mL)
- IC50 (Cytochrome P450 2C9): 2800 nM
- EC50 (Plasmodium berghei [17]): 5700 nM
- IC50 (Plasmodium cynomolgi [13]): 930 nM

Compound: COc1cccc(-c2nc(C)cn2-c2ccnc(N[C@@H]3CCN(C(=O)c4nccs4)C3)n2)c1
- IC50 [4]: 86 nM

Compound: CO[C@@H]1[C@@H](OC)[C@H](C)C(O)(CC(=O)O)O[C@H]1[C@H](C)[C@H]1O[C@@]2(CC[C@@](C)([C@H]3CC[C@@](C)([C@@H]4O[C@@H]([C@H]5OC(C)(O)[C@H](C)C[C@@H]5C)C[C@@H]4O[C@@H]4C[C@H](OC)[C@@H](OC)[C@H](C)O4)O3)O2)C[C@H](O)[C@H]1C (stereo partly drawn)
- IC50 (Plasmodium cynomolgi [2]): 30 nM
- IC50 (Plasmodium cynomolgi [3]): 20 nM
- IC50 (Plasmodium cynomolgi [5]): 30 nM
- Activity [6]: 5.78 µM
- Activity [7]: 11.91 µM
- IC50 (Plasmodium cynomolgi [13]): 10 nM

Compound: CN1CCC(c2cc(-c3ccc(F)cc3)c(-c3ccncc3)[nH]2)CC1
- IC50 [4]: 22 nM
- percent decrease in parasite infection in HepG2 cells at 2 µM (Plasmodium berghei [8]): 91%
- percent inhibition of parasite infection at 10 µM (Plasmodium berghei [9]): 94%
- EC50 (Plasmodium falciparum [16]): 150 nM
- EC50 (Plasmodium berghei [17]): 300 nM
- IC50 [14]: 20 nM

Compound: Cc1cn(-c2ccnc(N[C@@H]3CCN(C(=O)c4nccs4)C3)n2)c(-c2ccccc2Cl)n1
- inhibition (Plasmodium falciparum [15]): 47%

Compound: Cc1cn(-c2ccnc(N[C@@H]3CCN(C(=O)c4nccs4)C3)n2)c(-c2cccc(OC(F)(F)F)c2)n1
- IC50 [4]: 150 nM

Compound: O=C(c1nccs1)N1CC[C@@H](Nc2nccc(-n3cc(C4CC4)nc3-c3ccccc3)n2)C1
- half-life [1]: < 2 min
- IC50 (Cytochrome P450 3A4): 290 nM
- IC50 (Cytochrome P450 2D6): > 10000 nM
- IC50 [4]: 100 nM
- half-life [10]: 4.8 min
- EC50 (Plasmodium falciparum [16]): 7600 nM
- solubility kinetic at 1 h [12]: 92 µM (≈ 42.1 µg/mL)
- IC50 (Cytochrome P450 2C9): > 10000 nM
- EC50 (Plasmodium berghei [17]): 20000 nM

Compound: Cc1cn(-c2ccnc(N[C@@H]3CCN(C(=O)c4ccn(C)n4)C3)n2)c(-c2ccccc2)n1
- IC50 [4]: 1000 nM

Compound: COc1cc(C)c2c(Oc3cccc(C(F)(F)F)c3)c(OC)cc(NC(C)CCCN)c2n1 (stereo not drawn) [TAFENOQUINE]
- IC50 (Plasmodium cynomolgi [2]): 3610 nM
- IC50 (Plasmodium cynomolgi [3]): 140 nM
- IC50 (Plasmodium cynomolgi [5]): 3500 nM
- Activity [6]: 13.82 µM
- Activity [7]: 18.61 µM
- IC50 (Plasmodium cynomolgi [13]): 190 nM

Compound: Cc1cn(-c2ccnc(NCC3CCN3C(=O)c3nccs3)n2)c(-c2ccccc2)n1 (stereo not drawn)
- inhibition (Plasmodium falciparum [15]): 2%

Compound: Cc1cn(-c2ccnc(NC3CCN(C(=O)c4nccs4)CC3)n2)c(-c2ccccc2)n1
- inhibition (Plasmodium falciparum [15]): 5%

Compound: CCN(CC)Cc1onc(-c2cccc(Cl)c2)c1-c1ccnc(N[C@@H]2CCN(C(=O)c3ccsn3)C2)n1
- percent decrease in parasite infection in HepG2 cells at 2 µM (Plasmodium berghei [8]): 0%
- IC50 [14]: 17 nM
